Laboratory results taken from the NIST ThermoML archive (doi:10.1016/j.tca.2014.07.022).
± gives the expanded uncertainty stated by the source.

Assay: xn = mol fraction of the nth substance listed
Conditions: 100 kPa, Liquid; for viscosity: Concentric cylinders viscometry; for mass density: Vibrating tube method

CC(=O)CC(C)C [4-methylpentan-2-one] + CC(C)O
Conditions | mass density [kg/m3] | viscosity [mPa·s]
293.15 K, x1 = 0.067 | 786.4 ± 0.3 | 1.722 ± 0.037
293.15 K, x1 = 0.1344 | 787.5 ± 0.3 | 1.361 ± 0.029
293.15 K, x1 = 0.2044 | 788.6 ± 0.3 | 1.141 ± 0.024
293.15 K, x1 = 0.3035 | 790.2 ± 0.3 | 0.962 ± 0.021
293.15 K, x1 = 0.3848 | 791.4 ± 0.3 | 0.856 ± 0.019
293.15 K, x1 = 0.5098 | 793.4 ± 0.3 | 0.737 ± 0.016
293.15 K, x1 = 0.5987 | 794.7 ± 0.3 | 0.691 ± 0.015
293.15 K, x1 = 0.6986 | 796.3 ± 0.3 | 0.651 ± 0.014
293.15 K, x1 = 0.8138 | 798 ± 0.3 | 0.619 ± 0.014
293.15 K, x1 = 0.9278 | 799.8 ± 0.3 | 0.605 ± 0.014
293.15 K, x1 = 1 | 800.8 ± 0.3 | 0.588 ± 0.013
298.15 K, x1 = 0.067 | 782.1 ± 0.3 | 1.516 ± 0.032
298.15 K, x1 = 0.1344 | 783.1 ± 0.3 | 1.217 ± 0.026
298.15 K, x1 = 0.2044 | 784.1 ± 0.3 | 1.029 ± 0.022
298.15 K, x1 = 0.3035 | 785.6 ± 0.3 | 0.877 ± 0.019
298.15 K, x1 = 0.3848 | 786.8 ± 0.3 | 0.784 ± 0.017
298.15 K, x1 = 0.5098 | 788.6 ± 0.3 | 0.684 ± 0.015
298.15 K, x1 = 0.5987 | 790 ± 0.3 | 0.64 ± 0.014
298.15 K, x1 = 0.6986 | 791.5 ± 0.3 | 0.608 ± 0.014
298.15 K, x1 = 0.8138 | 793.2 ± 0.3 | 0.581 ± 0.013
298.15 K, x1 = 0.9278 | 795 ± 0.3 | 0.568 ± 0.013
298.15 K, x1 = 1 | 796.1 ± 0.3 | 0.554 ± 0.013
303.15 K, x1 = 0.067 | 777.7 ± 0.3 | 1.346 ± 0.029
303.15 K, x1 = 0.1344 | 778.6 ± 0.3 | 1.09 ± 0.023
303.15 K, x1 = 0.2044 | 779.6 ± 0.3 | 0.932 ± 0.02
303.15 K, x1 = 0.3035 | 781 ± 0.3 | 0.8 ± 0.017
303.15 K, x1 = 0.3848 | 782.2 ± 0.3 | 0.725 ± 0.016
303.15 K, x1 = 0.5098 | 784 ± 0.3 | 0.638 ± 0.014
303.15 K, x1 = 0.5987 | 785.4 ± 0.3 | 0.601 ± 0.013
303.15 K, x1 = 0.6986 | 786.9 ± 0.3 | 0.571 ± 0.013
303.15 K, x1 = 0.8138 | 788.7 ± 0.3 | 0.547 ± 0.012
303.15 K, x1 = 0.9278 | 790.5 ± 0.3 | 0.534 ± 0.012
303.15 K, x1 = 1 | 791.6 ± 0.3 | 0.523 ± 0.012
308.15 K, x1 = 0.067 | 773.2 ± 0.3 | 1.19 ± 0.026
308.15 K, x1 = 0.1344 | 774.1 ± 0.3 | 0.985 ± 0.021
308.15 K, x1 = 0.2044 | 775 ± 0.3 | 0.849 ± 0.018
308.15 K, x1 = 0.3035 | 776.4 ± 0.3 | 0.736 ± 0.016
308.15 K, x1 = 0.3848 | 777.5 ± 0.3 | 0.669 ± 0.015
308.15 K, x1 = 0.5098 | 779.3 ± 0.3 | 0.594 ± 0.013
308.15 K, x1 = 0.5987 | 780.7 ± 0.3 | 0.562 ± 0.013
308.15 K, x1 = 0.6986 | 782.2 ± 0.3 | 0.536 ± 0.012
308.15 K, x1 = 0.8138 | 784 ± 0.3 | 0.515 ± 0.012
308.15 K, x1 = 0.9278 | 785.7 ± 0.3 | 0.503 ± 0.012
308.15 K, x1 = 1 | 786.9 ± 0.3 | 0.493 ± 0.011
313.15 K, x1 = 0.067 | 768.7 ± 0.3 | 1.059 ± 0.023
313.15 K, x1 = 0.1344 | 769.5 ± 0.3 | 0.884 ± 0.019
313.15 K, x1 = 0.2044 | 770.4 ± 0.3 | 0.769 ± 0.017
313.15 K, x1 = 0.3035 | 771.8 ± 0.3 | 0.675 ± 0.015
313.15 K, x1 = 0.3848 | 772.9 ± 0.3 | 0.619 ± 0.014
313.15 K, x1 = 0.5098 | 774.7 ± 0.3 | 0.555 ± 0.013
313.15 K, x1 = 0.5987 | 776 ± 0.3 | 0.528 ± 0.012
313.15 K, x1 = 0.6986 | 777.5 ± 0.3 | 0.505 ± 0.012
313.15 K, x1 = 0.8138 | 779.3 ± 0.3 | 0.486 ± 0.011
313.15 K, x1 = 0.9278 | 781.1 ± 0.3 | 0.473 ± 0.011
313.15 K, x1 = 1 | 782.3 ± 0.3 | 0.463 ± 0.011
318.15 K, x1 = 0.067 | 764.1 ± 0.3 | 0.949 ± 0.021
318.15 K, x1 = 0.1344 | 764.8 ± 0.3 | 0.799 ± 0.017
318.15 K, x1 = 0.2044 | 765.7 ± 0.3 | 0.695 ± 0.015
318.15 K, x1 = 0.3035 | 767 ± 0.3 | 0.615 ± 0.014
318.15 K, x1 = 0.3848 | 768.1 ± 0.3 | 0.565 ± 0.013
318.15 K, x1 = 0.5098 | 769.9 ± 0.3 | 0.516 ± 0.012
318.15 K, x1 = 0.5987 | 771.2 ± 0.3 | 0.495 ± 0.011
318.15 K, x1 = 0.6986 | 772.7 ± 0.3 | 0.475 ± 0.011
318.15 K, x1 = 0.8138 | 774.6 ± 0.3 | 0.459 ± 0.011
318.15 K, x1 = 0.9278 | 776.4 ± 0.3 | 0.447 ± 0.01
318.15 K, x1 = 1 | 777.6 ± 0.3 | 0.437 ± 0.01
323.15 K, x1 = 0.067 | 759.4 ± 0.3 | 0.845 ± 0.018
323.15 K, x1 = 0.1344 | 760.2 ± 0.3 | 0.718 ± 0.016
323.15 K, x1 = 0.2044 | 761 ± 0.3 | 0.629 ± 0.014
323.15 K, x1 = 0.3035 | 762.3 ± 0.3 | 0.56 ± 0.013
323.15 K, x1 = 0.3848 | 763.4 ± 0.3 | 0.52 ± 0.012
323.15 K, x1 = 0.5098 | 765.2 ± 0.3 | 0.48 ± 0.011
323.15 K, x1 = 0.5987 | 766.5 ± 0.3 | 0.462 ± 0.011
323.15 K, x1 = 0.6986 | 768.1 ± 0.3 | 0.448 ± 0.01
323.15 K, x1 = 0.8138 | 769.9 ± 0.3 | 0.435 ± 0.01
323.15 K, x1 = 0.9278 | 771.8 ± 0.3 | 0.422 ± 0.01
323.15 K, x1 = 1 | 773 ± 0.3 | 0.41 ± 0.01
